According to paper PMC10893631, “Receptor-based pharmacophore modeling, molecular docking, synthesis and biological evaluation of novel VEGFR-2, FGFR-1, and BRAF multi-kinase inhibitors” (BMC Chemistry, 2024):

Legend:
Assay in all cases: NCI SRB growth inhibition (single dose 10 µM / five-dose)
Format in all cases: cell-based, human
[1] = tested on: A498; conditions: Homo sapiens; for inhibition at 10 µM: A498 (Renal cancer), read-out: GI%
Method in brief: (§1)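 Three dose–response parameters were calculated per compound, among them TGI, defined at Ti = Tz. Percentage growth came from SRB absorbance normalised to time-zero and control wells, with negative values indicating cell kill below Tz.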

[2] = tested on: A549/ATCC; conditions: Homo sapiens; for inhibition at 10 µM: A549/ATCC (Non-small cell lung cancer), read-out: GI%
Method in brief: as §1

[3] = tested on: CCRF-CEM; conditions: Homo sapiens; for inhibition at 10 µM: CCRF-CEM (Leukemia), read-out: GI%
Method in brief: as §1

[4] = tested on: COLO 205; conditions: Homo sapiens; for inhibition at 10 µM: COLO 205 (Colon cancer), read-out: GI%
Method in brief: as §1

[5] = tested on: EKVX; conditions: Homo sapiens; for inhibition at 10 µM: EKVX (Non-small cell lung cancer), read-out: GI%
Method in brief: as §1

[6] = tested on: HCC-2998; conditions: Homo sapiens; for inhibition at 10 µM: HCC-2998 (Colon cancer), read-out: GI%
Method in brief: as §1

[7] = tested on: HS 578 T; conditions: Homo sapiens; for inhibition at 10 µM: HS 578 T (Breast cancer), read-out: GI%
Method in brief: as §1

[8] = tested on: IGROV1; conditions: Homo sapiens, IGROV-1; for inhibition at 10 µM: IGROV1 (Ovarian cancer), read-out: GI%
Method in brief: as §1

[9] = tested on: K-562; conditions: Homo sapiens, K562; for inhibition at 10 µM: K-562 (Leukemia), read-out: GI%
Method in brief: as §1

[10] = tested on: MALME-3 M; conditions: Homo sapiens; for inhibition at 10 µM: MALME-3 M (Melanoma), read-out: GI%
Method in brief: as §1

[11] = tested on: MCF7; conditions: Homo sapiens; for inhibition at 10 µM: MCF7 (Breast cancer), read-out: GI%
Method in brief: as §1

[12] = tested on: NCI-H23; conditions: Homo sapiens; for inhibition at 10 µM: NCI-H23 (Non-small cell lung cancer), read-out: GI%
Method in brief: as §1

[13] = tested on: NCI-H460; conditions: Homo sapiens; for inhibition at 10 µM: NCI-H460 (Non-small cell lung cancer), read-out: GI%
Method in brief: as §1

[14] = tested on: OVCAR-3; conditions: Homo sapiens; for inhibition at 10 µM: OVCAR-3 (Ovarian cancer), read-out: GI%
Method in brief: as §1

[15] = tested on: OVCAR-5; conditions: Homo sapiens; for inhibition at 10 µM: OVCAR-5 (Ovarian cancer), read-out: GI%
Method in brief: as §1

[16] = tested on: OVCAR-8; conditions: Homo sapiens; for inhibition at 10 µM: OVCAR-8 (Ovarian cancer), read-out: GI%
Method in brief: as §1

[17] = tested on: PC-3; conditions: Homo sapiens; PC-3 (Prostate cancer), 10 µM; read-out: GI%
Method in brief: as §1

[18] = tested on: RPMI-8226; conditions: Homo sapiens; for inhibition at 10 µM: RPMI-8226 (Leukemia), read-out: GI%
Method in brief: as §1

[19] = tested on: SF-295; conditions: Homo sapiens; for inhibition at 10 µM: SF-295 (CNS cancer), read-out: GI%
Method in brief: as §1

[20] = tested on: SK-MEL-28; conditions: Homo sapiens; for inhibition at 10 µM: SK-MEL-28 (Melanoma), read-out: GI%
Method in brief: as §1

[21] = tested on: SK-MEL-2; conditions: Homo sapiens; for inhibition at 10 µM: SK-MEL-2 (Melanoma), read-out: GI%
Method in brief: as §1

[22] = tested on: SW-620; conditions: Homo sapiens; for inhibition at 10 µM: SW-620 (Colon cancer), read-out: GI%
Method in brief: as §1

[23] = tested on: T-47D; conditions: Homo sapiens, T47D; for inhibition at 10 µM: T-47D (Breast cancer), read-out: GI%
Method in brief: as §1

[24] = tested on: TK-10; conditions: Homo sapiens; for inhibition at 10 µM: TK-10 (Renal cancer), read-out: GI%
Method in brief: as §1

[25] = tested on: UACC-257; conditions: Homo sapiens; for inhibition at 10 µM: UACC-257 (Melanoma), read-out: GI%
Method in brief: as §1

[26] = tested on: UACC-62; conditions: Homo sapiens; for inhibition at 10 µM: UACC-62 (Melanoma), read-out: GI%
Method in brief: as §1

COc1ccc(-c2nc3cc(C(=O)NN=Cc4cccc(OC)c4O)ccc3[nH]2)cc1 [8k, N'-(2-Hydroxy-3-methoxybenzylidene)-2-(4-methoxyphenyl)-1H-benzo[d]imidazole-5-carbohydrazide]
inhibition at 10 µM [1]: < 5% | GI50 ([1]; A498, Renal cancer, five-dose): > 100 µM | inhibition at 10 µM [2]: 76.7% | GI50 ([2]; A549/ATCC, Non-small cell lung cancer, five-dose): 9.04 µM | inhibition at 10 µM [3]: > 100% | GI50 ([3]; CCRF-CEM, Leukemia, five-dose): 1.05 µM | inhibition at 10 µM [4]: > 100% | GI50 ([4]; COLO 205, Colon cancer, five-dose): 3.94 µM | inhibition at 10 µM [5]: 98.1% | GI50 ([5]; EKVX, Non-small cell lung cancer, five-dose): 2.3 µM | inhibition at 10 µM [6]: > 100% | GI50 ([6]; HCC-2998, Colon cancer, five-dose): 2.33 µM | inhibition at 10 µM [7]: 89.3% | GI50 ([7]; HS 578 T, Breast cancer, five-dose): 2.22 µM | inhibition at 10 µM [8]: 84.8% | GI50 ([8]; IGROV1, Ovarian cancer, five-dose): 3.52 µM | inhibition at 10 µM [9]: > 100% | GI50 ([9]; K-562, Leukemia, five-dose): 3.74 µM | inhibition at 10 µM [10]: > 100% | GI50 ([10]; MALME-3 M, Melanoma, five-dose): 1.09 µM | inhibition at 10 µM [11]: > 100% | GI50 ([11]; MCF7, Breast cancer, five-dose): 1.72 µM | inhibition at 10 µM [12]: > 100% | GI50 ([12]; NCI-H23, Non-small cell lung cancer, five-dose): 2.14 µM | inhibition at 10 µM [13]: > 100% | GI50 ([13]; NCI-H460, Non-small cell lung cancer, five-dose): 3.27 µM | inhibition at 10 µM [14]: > 100% | GI50 ([14]; OVCAR-3, Ovarian cancer, five-dose): 1.25 µM | inhibition at 10 µM [15]: 69.5% | GI50 ([15]; OVCAR-5, Ovarian cancer, five-dose): 7.72 µM | inhibition at 10 µM [16]: > 100% | GI50 ([16]; OVCAR-8, Ovarian cancer, five-dose): 2.71 µM | inhibition at 10 µM [17]: 87.9% | inhibition at 10 µM [18]: > 100% | GI50 ([18]; RPMI-8226, Leukemia, five-dose): 2.8 µM | inhibition at 10 µM [19]: 96.4% | GI50 ([19]; SF-295, CNS cancer, five-dose): 2.48 µM | inhibition at 10 µM [20]: > 100% | GI50 ([20]; SK-MEL-28, Melanoma, five-dose): 3.32 µM | inhibition at 10 µM [21]: 39.1% | GI50 ([21]; SK-MEL-2, Melanoma, five-dose): 6.3 µM | inhibition at 10 µM [22]: 98.8% | GI50 ([22]; SW-620, Colon cancer, five-dose): 4.35 µM | inhibition at 10 µM [23]: 95% | GI50 ([23]; T-47D, Breast cancer, five-dose): 3.48 µM | inhibition at 10 µM [24]: 40% | GI50 ([24]; TK-10, Renal cancer, five-dose): > 100 µM | inhibition at 10 µM [25]: > 100% | GI50 ([25]; UACC-257, Melanoma, five-dose): 3.43 µM | inhibition at 10 µM [26]: 98% | GI50 ([26]; UACC-62, Melanoma, five-dose): 2.78 µM

COc1ccc(-c2nc3cc(C(=O)NN=Cc4ccc(OC)c(O)c4)ccc3[nH]2)cc1 [8l, N'-(3-Hydroxy-4-methoxybenzylidene)-2-(4-methoxyphenyl)-1H-benzo[d]imidazole-5-carbohydrazide]
inhibition at 10 µM [1]: < 5% | inhibition at 10 µM [2]: 5.94% | inhibition at 10 µM [3]: 89.4% | inhibition at 10 µM [4]: 76.8% | inhibition at 10 µM [5]: 12.9% | inhibition at 10 µM [6]: 15% | inhibition at 10 µM [7]: 46.2% | inhibition at 10 µM [8]: 20.3% | inhibition at 10 µM [9]: 48.5% | inhibition at 10 µM [10]: 87.6% | inhibition at 10 µM [11]: 77.8% | inhibition at 10 µM [12]: 24% | inhibition at 10 µM [13]: 15% | inhibition at 10 µM [14]: 37.6% | inhibition at 10 µM [15]: < 5% | inhibition at 10 µM [16]: 28.1% | inhibition at 10 µM [17]: 51.2% | inhibition at 10 µM [18]: 32.4% | inhibition at 10 µM [19]: 51% | inhibition at 10 µM [20]: 52.5% | inhibition at 10 µM [21]: 25.8% | inhibition at 10 µM [22]: 21.8% | inhibition at 10 µM [23]: 52.5% | inhibition at 10 µM [24]: < 5% | inhibition at 10 µM [25]: 52.9% | inhibition at 10 µM [26]: 47.6%

COc1ccc(-c2nc3cc(C(=O)NN=Cc4cc(OC)ccc4OC)ccc3[nH]2)cc1 [8m, N'-(2,5-Dimethoxybenzylidene)-2-(4-methoxyphenyl)-1H-benzo[d]imidazole-5-carbohydrazide]
inhibition at 10 µM [1]: < 5% | inhibition at 10 µM [2]: 13.7% | inhibition at 10 µM [3]: 45.9% | inhibition at 10 µM [4]: < 5% | inhibition at 10 µM [5]: 10.6% | inhibition at 10 µM [6]: < 5% | inhibition at 10 µM [7]: < 5% | inhibition at 10 µM [8]: < 5% | inhibition at 10 µM [9]: 22.8% | inhibition at 10 µM [10]: 18.3% | inhibition at 10 µM [11]: 20.6% | inhibition at 10 µM [12]: < 5% | inhibition at 10 µM [13]: < 5% | inhibition at 10 µM [14]: < 5% | inhibition at 10 µM [15]: < 5% | inhibition at 10 µM [16]: 23.6% | inhibition at 10 µM [17]: 13.6% | inhibition at 10 µM [18]: 76.8% | inhibition at 10 µM [19]: 19.9% | inhibition at 10 µM [20]: 5.7% | inhibition at 10 µM [21]: 11.1% | inhibition at 10 µM [22]: < 5% | inhibition at 10 µM [23]: 40.6% | inhibition at 10 µM [24]: < 5% | inhibition at 10 µM [25]: 14.3% | inhibition at 10 µM [26]: 6.39%
